Reference: patent publication US8067458B2, “Alkoxyalkyl-substituted cyclic ketoenols” (Bayer Cropscience AG, priority 2006, dated 2011)
“And” between values parts separate entries of the source, which are not always exact repeats. Equal entries are not always repeated. Where two headings read alike, the source gives them in different places.

Key:
Spring wheat = format: in vivo; conditions: post-emergence
[1] = test system: caterpillars of the army worm (Spodoptera frugiperda); assay: Spodoptera frugiperda test (spray treatment); format: in vivo; conditions: 500 g/ha, maize leaf discs
Protocol: Solvent: 78 parts by weight of acetone • • 1.5 parts by weight of dimethylformamide Emulsifier: 0.5 part by weight of alkylaryl polyglycol ether A suitable preparation of active compound is prepared by mixing 1 part by weight of active compound with the stated amounts of solvent and emulsifier and diluting the concentrate with emulsifier-containing water to the desired concentration. Leaf discs of maize (Zea mays) are sprayed with a preparation of active compound at the desired concentration and after they have dried are populated with caterpillars of the army worm (Spodoptera frugiperda).

Spring barley = format: in vivo; conditions: post-emergence
Maize - Arsenal = assay: Greenhouse container trials with maize, safener 1 day prior to herbicide application, pre-emergence; format: in vivo; conditions: 28 days after application
Protocol: (§1) Seeds of monocotyledonous and dicotyledonous weed plants and crop plants are placed in sandy loam soil in wood fibre pots or in plastic pots and are covered with earth. The pots are easily fitted and then the soil surface is treated with the test compounds, formulated as wettable powders (WP) or liquids (EC) in various dosages, with a water application rate of 300 l/ha (converted). […] If the testing is also to look at whether safeners can improve the tolerance of the crop plants for test substances, the following options are used for the application of the safener: • seeds of the crop plants are dressed with the safener substance prior to sowing (the amount of safener is stated as a percentage, based on the seed weight) • crop plants are sprayed with the safener, with a defined application rate per hectare, prior to application of the test substances (typically 1 day before the test substances are applied) • the safener is applied together with the test substance in the form of a tank mix (the amount of safener is reported in g/ha or as a proportion relative to the herbicide). By comparing the effect of test substances on crop plants which have been treated with safener and without safener it is possible to assess the effect of the safener substance.

Maize - CECILIA = assay: as above; format: in vivo; conditions: 50 g a.i./ha, 28 days after application
Protocol: as §1

[2] = Determination of the log P values by HPLC on a reversed phase column (C18); format: physicochemical; conditions: 43° C., EEC Directive 79/831 Annex V.A8
Protocol: The log P values reported in the table were determined in accordance with EEC Directive 79/831 Annex V.A8 by means of HPLC (high performance liquid chromatography) on a reversed phase column (C18). Temperature: 43° C. […] Calibration was carried out with unbranched alkan-2-ones (having 3 to 16 carbon atoms) whose log P values are known (log P values determined on the basis of the retention times by means of linear interpolation between two successive alkanones).

[3] = Penetration of active compounds through enzymatically isolated cuticles of apple leaves; conditions: spray liquor on isolated cuticles; 20° C., 60% rh; average of 5 to 6 measurements
[4] = 28 days after application, 50 g a.i./ha
[5] = 28 days after application, 100 g a.i./ha
[6] = 28 days after application, 25 g a.i./ha
[7] = 25 g a.i./ha, 10 days after application
[8] = 50 g a.i./ha, 10 days after application
[9] = 10 days after application, 25 g a.i./ha
[10] = 10 days after application, 50 g a.i./ha
[11] = 10 days after application, 100 g a.i./ha
[12] = 10 days after application, 12.5 g a.i./ha

SMILES: CCc1cc(C)cc(Br)c1C1=C(O)C(C)(COC)NC1=O (racemic) [I-a-6]
- Spring wheat observed (%) (Spring wheat; [4]): 20%
- Spring wheat observed (%) (Spring wheat; [5]): 30%

SMILES: CCc1cc(Cl)cc(OC)c1C1=C(O)C(C)(COC)NC1=O (racemic) [I-a-10]
- Spring wheat observed (%) (Spring wheat; 28 days after application, 12.5 g a.i./ha): 5%
- Spring wheat observed (%) (Spring wheat; [6]): 15%
- Spring wheat observed (%) (Spring wheat; [4]): 25%

SMILES: COCC1(C)NC(=O)C(c2c(C)cc(C)cc2Cl)=C1O (racemic) [I-a-12]
- activity (effect in %, caterpillars killed) [1]: ≥ 80%

SMILES: CCc1cc(C)cc(C)c1C1=C(OC(=O)C(C)C)C(C)(COC)NC1=O (racemic) [I-b-4]
- Spring wheat observed (%) (Spring wheat; 12.5 g a.i./ha, 10 days after application): 30%
- Spring wheat observed (%) (Spring wheat; [7]): 50%
- Spring wheat observed (%) (Spring wheat; [8]): 70%
- Spring wheat observed (%) (Spring wheat; [9]): 10%
- Spring wheat observed (%) (Spring wheat; [10]): 50%
- Spring wheat observed (%) (Spring wheat; [11]): 75%
- Spring wheat observed (%) (Spring wheat; [6]): 10%
- Spring wheat observed (%) (Spring wheat; 28 days after application, 50 g a.i./ha, listed as Ex. I-b-4): 15% and 5%
- Spring wheat observed (%) (Spring wheat; [5]): 30%
- Spring barley observed (%) (Spring barley; [7]): 30%
- Spring barley observed (%) (Spring barley; [8]): 40%
- Spring barley observed (%) (Spring barley; [10]): 25%
- Spring barley observed (%) (Spring barley; [11]): 65%

SMILES: CCc1cc(C)cc(OC)c1C1=C(OC(=O)C(C)C)C(C)(COC)NC1=O (racemic) [I-b-9]
- Spring wheat observed (%) (Spring wheat; [12]): 15%
- Spring wheat observed (%) (Spring wheat; [9]): 60%
- Spring wheat observed (%) (Spring wheat; [6]): 60%
- Spring wheat observed (%) (Spring wheat; [4]): 85%
- Spring barley observed (%) (Spring barley; [9]): 25%
- Spring barley observed (%) (Spring barley; [10]): 75%
- Spring barley observed (%) (Spring barley; [6]): 25%
- Spring barley observed (%) (Spring barley; [4]): 70%

SMILES: CCc1cc(Cl)cc(OC)c1C1=C(OC(=O)C(C)C)C(C)(COC)NC1=O (racemic) [I-b-10]
- Maize - Arsenal observed (%) (Maize - Arsenal; 12.5 g a.i./ha): 5%
- Maize - Arsenal observed (%) (Maize - Arsenal; 25 g a.i./ha): 15%
- Maize - Arsenal observed (%) (Maize - Arsenal; 50 g a.i./ha): 25%
- Maize - CECILIA observed (%) (Maize - CECILIA): 15%

SMILES: CCc1cc(C)cc(C)c1C1=C(OC(=O)COC)C(C)(COC)NC1=O (racemic) [I-b-11]
- Spring wheat observed (%) (Spring wheat; [9]): 10%
- Spring wheat observed (%) (Spring wheat; [10]): 60%
- Spring wheat observed (%) (Spring wheat; [6]): 10%
- Spring wheat observed (%) (Spring wheat; [4]): 50%
- Spring barley observed (%) (Spring barley; [12]): 10%
- Spring barley observed (%) (Spring barley; [9]): 15%
- Spring barley observed (%) (Spring barley; [10]): 50%
- Spring barley observed (%) (Spring barley; [11]): 70%
- Spring barley observed (%) (Spring barley; [4]): 25%
- Spring barley observed (%) (Spring barley; [5]): 55%

SMILES: CCc1cc(C)cc(C2CC2)c1CC(=O)NC(C)(COC)C(=O)OC (racemic) [II-20]
- logP [2]: oil logP 3.13

SMILES: COCC(C)(NC(=O)Cc1c(C2CC2)cc(C)cc1C1CC1)C(=O)OC (stereo not shown) [II-27]
- logP [2]: logP 3.19

SMILES: CCc1cc(C)cc(C)c1CC(=O)NC(C)(CCOC)C(=O)OC (stereo not shown) [II-28]
- logP [2]: logP 3.19

SMILES: COCCC(C)(NC(=O)Cc1c(C)cc(C)cc1C)C(=O)OC (stereo not shown) [II-29]
- logP [2]: logP 2.86

SMILES: CCc1cc(Cl)cc(OC)c1CC(=O)NC(C)(CCOC)C(=O)OC (stereo not shown) [II-33]
- logP [2]: logP 3.21

SMILES: CCOc1cc(Cl)cc(CC)c1CC(=O)NC(C)(CCOC)C(=O)OC (stereo not shown) [II-34]
- logP [2]: logP 3.64

SMILES: CCc1cc(C)cc(Br)c1CC(=O)NC(C)(CCOC)C(=O)OC (stereo not shown) [II-35]
- logP [2]: logP 3.39

SMILES: N.N.O=S(=O)(O)O [ammonium sulphate]
- penetration through apple leaf cuticles (effect of additive, in words) [3]: significantly improves the penetration
